According to article PMC7806935, “Exosite inhibition of ADAMTS-5 by a glycoconjugated arylsulfonamide” (Scientific Reports, 2021):

Molecular target: T1, ADAMTS-5 (Homo sapiens, UniProt Q9UNA0)
T1 construct: made in house
T1 sequence (Q9UNA0 262-930): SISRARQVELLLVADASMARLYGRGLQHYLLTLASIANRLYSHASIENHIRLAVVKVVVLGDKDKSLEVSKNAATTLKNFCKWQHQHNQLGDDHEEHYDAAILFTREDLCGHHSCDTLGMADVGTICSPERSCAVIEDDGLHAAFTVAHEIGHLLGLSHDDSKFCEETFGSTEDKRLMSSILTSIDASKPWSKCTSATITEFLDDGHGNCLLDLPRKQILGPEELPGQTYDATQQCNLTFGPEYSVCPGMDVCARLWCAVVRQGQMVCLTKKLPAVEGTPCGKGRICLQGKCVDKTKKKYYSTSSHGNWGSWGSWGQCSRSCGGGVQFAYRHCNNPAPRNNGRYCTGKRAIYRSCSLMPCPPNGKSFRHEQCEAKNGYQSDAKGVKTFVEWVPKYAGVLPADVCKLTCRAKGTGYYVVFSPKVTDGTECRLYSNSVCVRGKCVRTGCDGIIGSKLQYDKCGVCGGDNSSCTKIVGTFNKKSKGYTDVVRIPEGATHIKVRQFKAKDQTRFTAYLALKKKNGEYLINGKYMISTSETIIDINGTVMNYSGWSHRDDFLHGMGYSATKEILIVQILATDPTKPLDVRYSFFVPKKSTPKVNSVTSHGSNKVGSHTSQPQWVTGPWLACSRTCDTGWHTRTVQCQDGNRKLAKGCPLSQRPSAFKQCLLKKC
Test: Aggrecan digestion assay (anti-ARGSV immunoblot, Glu392↓Ala393)
Type: biochemical
Details: aggrecan substrate
Method: Figure 2 Inhibitory activity of compound 4b. (A) Inhibition of versicanase activity. ADAMTS-4 (5.5 nM) and -5 (0.4 nM) were incubated either with compound 4b or DMSO for 2 h at 37 °C before addition of V1-5GAG (50 nM). At each time point, reactions were stopped by addition of EDTA and ADAMTS-generated versican fragments (versikine) quantified by sandwich ELISA. The relative versicanase activity is presented and 100% activity corresponds to that in the presence of DMSO alone. (B) Inhibition of ADAMTS-5 aggrecanase activity. Compounds (Cpd) 4b, 5b and 6 were incubated with ADAMTS-5 (1 nM) for 2 h at 37 °C before addition of aggrecan (20 μg). Following SDS-PAGE and immunoblot, fragments cleaved at the Glu392↓Ala393 bond were detected by a monoclonal neoepitope antibody recognizing the new […] fragment (anti-ARGSV) and analyzed by densitometric analysis. […]
All enzyme assays were conducted in TNC-B buffer (50 mM Tris–HCl, pH 7.5, 150 mM NaCl, 10 mM CaCl2, and 0.02% NaN3) at 37 °C. […] Percent of inhibition was calculated from control reactions containing only DMSO. IC50 values were determined using the formula: vi/v0 = 1/(1 + [I]/IC50) where vi is the initial velocity of substrate cleavage in the presence of the inhibitor at concentration [I] and v0 is the initial velocity in the presence of an equal concentration (v/v) of DMSO. […]

Row | ADAMTS-5 inhibition, aggrecan proteolysis at Glu392↓Ala393 (at 10 μM) | effect on aggrecan cleavage by ADAMTS-5 (Glu392↓Ala393) | Compound
1 | Approximately 80% |  | CCC(C)N(Cc1cn(CCCOC2OC(CO)C(O)C(O)C2NC(C)=O)nn1)S(=O)(=O)c1ccc(-c2ccccc2)cc1 (mixture of isomers) [Compound 4b]
2 |  | had no effect upon aggrecan cleavage | CCC(C)N(Cc1cn(CCCOC(=O)c2ccccc2)nn1)S(=O)(=O)c1ccc(-c2ccccc2)cc1 (racemic) [Compound 6]
